Measurements from US9353107B2 (Aurigene Discovery Technologies Limited, priority 2012, dated 2016).

Target: T1, recombinant human ALK enzyme (ALK WT) (Homo sapiens, UniProt Q9UM73)
T1 construct: purchased Carna Biosciences 08-518
Assay: ALK WT cell free enzymatic assay (TR-FRET)
Format: biochemical
Conditions: 1 μM ATP; for IC50: 10 point dose response; for inhibition at 0.1 µM: compound at 100 nM; for inhibition at 0.1 µM / inhibition at 1 µM: 30 min pre-incubation; for inhibition at 1 µM: compound at 1 μM
Method in brief: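 Recombinant human ALK with 40 nM Ultra Light Poly GT, 1 μM ATP and Eu anti-phosphotyrosine antibody, 1% DMSO, pH 7.1 HEPES; 30 min enzyme-compound pre-incubation, then 30 min reaction. TR-FRET 665/615 ratio; percent inhibition at 100 nM and 1 μM, IC50 from 10-point sigmoidal fit.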

T1 sequence (Q9UM73 1058-1620 limits assumed): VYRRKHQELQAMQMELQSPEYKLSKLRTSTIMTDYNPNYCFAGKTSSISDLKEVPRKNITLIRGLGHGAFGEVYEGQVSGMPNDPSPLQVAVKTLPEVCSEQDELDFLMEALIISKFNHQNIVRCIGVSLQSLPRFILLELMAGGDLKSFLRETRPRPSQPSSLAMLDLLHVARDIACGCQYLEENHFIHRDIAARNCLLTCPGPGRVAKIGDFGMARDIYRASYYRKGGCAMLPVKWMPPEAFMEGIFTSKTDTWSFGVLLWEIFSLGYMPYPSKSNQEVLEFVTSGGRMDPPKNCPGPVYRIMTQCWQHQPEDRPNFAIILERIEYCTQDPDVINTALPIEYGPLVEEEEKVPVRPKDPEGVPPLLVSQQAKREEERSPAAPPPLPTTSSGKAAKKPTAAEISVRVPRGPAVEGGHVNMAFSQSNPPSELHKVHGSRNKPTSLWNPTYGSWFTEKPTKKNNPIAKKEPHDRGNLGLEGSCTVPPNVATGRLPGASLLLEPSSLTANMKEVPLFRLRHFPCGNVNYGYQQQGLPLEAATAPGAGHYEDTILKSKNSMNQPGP

Row | Structure (SMILES) | IC50 [nM] | inhibition at 0.1 µM [%] | inhibition at 1 µM [%]
1 | Fc1cccc(Cn2cc(-c3c[nH]c4ncc(-c5ccc(N6CCNCC6)nc5)cc34)cn2)c1 [Example 132, 3-(1-(3-fluorobenzyl)-1H-pyrazol-4-yl)-5-(6-(piperazin-1-yl)pyridin-3-yl)-1H-pyrrolo[2,3-b]pyridine] | < 50 | 100 | 100
2 | CN1CCN(c2ccc(-c3cnc4[nH]cc(-c5cnn(Cc6cc(F)cc(F)c6)c5)c4c3)cn2)CC1 [Example 133, 3-(1-(3,5-difluorobenzyl)-1H-pyrazol-4-yl)-5-(6-(4-methylpiperazin-1-yl)pyridin-3-yl)-1H-pyrrolo[2,3-b]pyridine] | < 50 | 97 | 100
3 | Fc1cc(F)cc(Cn2cc(-c3c[nH]c4ncc(-c5ccc(N6CCNCC6)nc5)cc34)cn2)c1 [Example 134, 3-(1-(3,5-difluorobenzyl)-1H-pyrazol-4-yl)-5-(6-(piperazin-1-yl)pyridin-3-yl)-1H-pyrrolo[2,3-b]pyridine] | < 50 | 97 | 100
4 | C[C@H](O)CN1CCN(c2ccc(-c3cnc4[nH]cc(-c5cnn(Cc6cc(F)cc(F)c6)c5)c4c3)cn2)CC1 [Example 135, (S)-1-(4-(5-(3-(1-(3,5-difluorobenzyl)-1H-pyrazol-4-yl)-1H-pyrrolo[2,3-b]pyridin-5-yl)pyridin-2-yl)piperazin-1-yl)propan-2-ol] | < 50 | 95 | 100
5 | NC(=O)CN1CCN(c2ccc(-c3cnc4[nH]cc(-c5cnn(Cc6cc(F)cc(F)c6)c5)c4c3)cn2)CC1 [Example 136, 2-(4-(5-(3-(1-(3,5-difluorobenzyl)-1H-pyrazol-4-yl)-1H-pyrrolo[2,3-b]pyridin-5-yl)pyridin-2-yl)piperazin-1-yl)acetamide] | < 50 | 97 | 99
6 | CN1CCN(c2ccc(-c3cnc4[nH]cc(-c5cnn(Cc6cccc(F)c6)c5)c4c3)cn2)CC1 [Example 137, 3-(1-(3-fluorobenzyl)-1H-pyrazol-4-yl)-5-(6-(4-methylpiperazin-1-yl)pyridin-3-yl)-1H-pyrrolo[2,3-b]pyridine] | < 50 | 99 | 100
7 | C[C@H](O)CN1CCN(c2ccc(-c3cnc4[nH]cc(-c5cnn(Cc6cccc(F)c6)c5)c4c3)cn2)CC1 [Example 138, (S)-1-(4-(5-(3-(1-(3-fluorobenzyl)-1H-pyrazol-4-yl)-1H-pyrrolo[2,3-b]pyridin-5-yl)pyridin-2-yl)piperazin-1-yl)propan-2-ol] | < 50 | 100 | 100
8 | NC(=O)CN1CCN(c2ccc(-c3cnc4[nH]cc(-c5cnn(Cc6cccc(F)c6)c5)c4c3)cn2)CC1 [Example 139, 2-(4-(5-(3-(1-(3-fluorobenzyl)-1H-pyrazol-4-yl)-1H-pyrrolo[2,3-b]pyridin-5-yl)pyridin-2-yl)piperazin-1-yl)acetamide] | < 50 | 99 | 100
9 | c1ccc(CCn2cc(-c3c[nH]c4ncc(-c5ccc(N6CCNCC6)nc5)cc34)cn2)cc1 [Example 140, 3-(1-phenethyl-1H-pyrazol-4-yl)-5-(6-(piperazin-1-yl)pyridin-3-yl)-1H-pyrrolo[2,3-b]pyridine] | < 50 | 80 | 95
10 | CN1CCN(c2ccc(-c3cnc4[nH]cc(-c5cnn(CCc6ccccc6)c5)c4c3)cn2)CC1 [Example 141, 5-(6-(4-methylpiperazin-1-yl)pyridin-3-yl)-3-(1-phenethyl-1H-pyrazol-4-yl)-1H-pyrrolo[2,3-b]pyridine] | < 50 | 58 | 96
11 | OCCN1CCN(c2ccc(-c3cnc4[nH]cc(-c5cnn(Cc6cccc(F)c6)c5)c4c3)cn2)CC1 [Example 142, 2-(4-(5-(3-(1-(3-fluorobenzyl)-1H-pyrazol-4-yl)-1H-pyrrolo[2,3-b]pyridin-5-yl)pyridin-2-yl)piperazin-1-yl)ethanol] | – | 94 | 100
12 | C[C@H](O)CN1CCN(c2ccc(-c3cnc4[nH]cc(-c5cnn(CCc6ccccc6)c5)c4c3)cn2)CC1 [Example 143, (S)-1-(4-(5-(3-(1-phenethyl-1H-pyrazol-4-yl)-1H-pyrrolo[2,3-b]pyridin-5-yl)pyridin-2-yl)piperazin-1-yl)propan-2-ol] | – | 60 | 98
13 | COc1nc(N2CCN(C[C@H](C)O)CC2)ccc1-c1cnc2[nH]cc(-c3cnn(Cc4cccc(F)c4)c3)c2c1 [Example 144, (S)-1-(4-(5-(3-(1-(3-fluorobenzyl)-1H-pyrazol-4-yl)-1H-pyrrolo[2,3-b]pyridin-5-yl)-6-methoxypyridin-2-yl)piperazin-1-yl)propan-2-ol] | < 50 | 76 | 94
14 | Cc1cccc(Cn2cc(-c3c[nH]c4ncc(-c5ccc(N6CCN(C[C@H](C)O)CC6)nc5)cc34)cn2)c1 [Example 145, (S)-1-(4-(5-(3-(1-(3-methylbenzyl)-1H-pyrazol-4-yl)-1H-pyrrolo[2,3-b]pyridin-5-yl)pyridin-2-yl)piperazin-1-yl)propan-2-ol] | < 50 | 83 | 99
15 | C[C@H](O)CN1CCN(c2ccc(-c3cnc4[nH]cc(-c5cnn(Cc6cccc(F)c6)c5)c4c3)nc2)CC1 [Example 146, (S)-1-(4-(6-(3-(1-(3-fluorobenzyl)-1H-pyrazol-4-yl)-1H-pyrrolo[2,3-b]pyridin-5-yl)pyridin-3-yl)piperazin-1-yl)propan-2-ol] | 50 to 250 | 60 | 97
16 | CN(C)CC(=O)N1CCN(c2ccc(-c3cnc4[nH]cc(-c5cnn(Cc6cccc(F)c6)c5)c4c3)cn2)CC1 [Example 147, 2-(dimethylamino)-1-(4-(5-(3-(1-(3-fluorobenzyl)-1H-pyrazol-4-yl)-1H-pyrrolo[2,3-b]pyridin-5-yl)pyridin-2-yl)piperazin-1-yl)ethanone] | < 50 | 99 | 100
17 | C[C@H](O)CN1CCN(c2ccc(-c3cnc4[nH]cc(-c5cnn(Cc6ccccc6)c5)c4c3)cn2)CC1 [Example 148, (S)-1-(4-(5-(3-(1-benzyl-1H-pyrazol-4-yl)-1H-pyrrolo[2,3-b]pyridin-5-yl)pyridin-2-yl)piperazin-1-yl)propan-2-ol] | < 50 | 94 | 100
18 | COCCN1CCN(c2ccc(-c3cnc4[nH]cc(-c5cnn(Cc6cccc(F)c6)c5)c4c3)cn2)CC1 [Example 149, 3-(1-(3-fluorobenzyl)-1H-pyrazol-4-yl)-5-(6-(4-(2-methoxyethyl)piperazin-1-yl)pyridin-3-yl)-1H-pyrrolo[2,3-b]pyridine] | < 50 | 95 | 100
19 | N#CCN1CCN(c2ccc(-c3cnc4[nH]cc(-c5cnn(Cc6cccc(F)c6)c5)c4c3)cn2)CC1 [Example 150, 2-(4-(5-(3-(1-(3-fluorobenzyl)-1H-pyrazol-4-yl)-1H-pyrrolo[2,3-b]pyridin-5-yl)pyridin-2-yl)piperazin-1-yl)acetonitrile] | < 50 | 92 | 100
20 | C[C@H](O)CN1CCN(c2ccc(-c3cnc4[nH]cc(-c5cnn(Cc6cccc(O)c6)c5)c4c3)cn2)CC1 [Example 151, (S)-3-((4-(5-(6-(4-(2-hydroxypropyl)piperazin-1-yl)pyridin-3-yl)-1H-pyrrolo[2,3-b]pyridin-3-yl)-1H-pyrazol-1-yl)methyl)phenol] | < 50 | 92 | 97
21 | CC(C)CN1CCN(c2ccc(-c3cnc4[nH]cc(-c5cnn(Cc6cccc(F)c6)c5)c4c3)cn2)CC1 [Example 152, 3-(1-(3-fluorobenzyl)-1H-pyrazol-4-yl)-5-(6-(4-isobutylpiperazin-1-yl)pyridin-3-yl)-1H-pyrrolo[2,3-b]pyridine] | < 50 | 80 | 100
22 | C[C@H](O)CN1CCN(c2ccc(-c3cnc4[nH]cc(-c5cnn(Cc6cccc(Cl)c6)c5)c4c3)cn2)CC1 [Example 153, (S)-1-(4-(5-(3-(1-(3-chlorobenzyl)-1H-pyrazol-4-yl)-1H-pyrrolo[2,3-b]pyridin-5-yl)pyridin-2-yl)piperazin-1-yl)propan-2-ol] | < 50 | 93 | 100
23 | O=C(CO)N1CCN(c2ccc(-c3cnc4[nH]cc(-c5cnn(Cc6cccc(F)c6)c5)c4c3)cn2)CC1 [Example 154, 1-(4-(5-(3-(1-(3-fluorobenzyl)-1H-pyrazol-4-yl)-1H-pyrrolo[2,3-b]pyridin-5-yl)pyridin-2-yl)piperazin-1-yl)-2-hydroxyethanone] | < 50 | 99 | 100
24 | OC1CCN(c2ccc(-c3cnc4[nH]cc(-c5cnn(Cc6cccc(F)c6)c5)c4c3)cn2)CC1 [Example 155, 1-(5-(3-(1-(3-fluorobenzyl)-1H-pyrazol-4-yl)-1H-pyrrolo[2,3-b]pyridin-5-yl)pyridin-2-yl)piperidin-4-ol] | < 50 | 86 | 97
25 | CCS(=O)(=O)N1CCN(c2ccc(-c3cnc4[nH]cc(-c5cnn(Cc6cccc(F)c6)c5)c4c3)cn2)CC1 [Example 156, 5-(6-(4-(ethylsulfonyl)piperazin-1-yl)pyridin-3-yl)-3-(1-(3-fluorobenzyl)-1H-pyrazol-4-yl)-1H-pyrrolo[2,3-b]pyridine] | < 50 | 69 | 91
